# Data reported in US20250290915A1, “METHOD FOR PREDICTING RESPONSIVENESS TO THERAPY” (CANCERTAIN LIMITED, priority 2022, published 2025).
# What was measured:
# Type in all cases: cell-based, human
# [1] = system: Circulating Tumour Cells (CTCs) from a patient with sex cord stromal tumour, ovarian tumour; experiment: Drug response score assay on CTCs from blood, Example 4; parameters: key to Drug response score, conc. 1 / Drug response score, conc. 2 / Drug response score, conc. 3 / Drug response score, conc. 4: normalized drug response metric (Gupta et al. 2020); conditions: for Drug response score, conc. 1: conc. 1: Cyclo 2.5 μg/ml, Vinc 10 ng/ml, Etop 1 μg/ml, Bini 100 ng/ml, Doxo 10 ng/ml; for Drug response score, conc. 1 / Drug response score, conc. 2 / Drug response score, conc. 3 / Drug response score, conc. 4: CTCs, t96h; for Drug response score, conc. 2: conc. 2: Cyclo 10 μg/ml, Vinc 20 ng/ml, Etop 4 μg/ml, Bini 200 ng/ml, Doxo 30 ng/ml; for Drug response score, conc. 3: conc. 3: Cyclo 40 μg/ml, Vinc 40 ng/ml, Etop 20 μg/ml, Bini 400 ng/ml, Doxo 90 ng/ml; for Drug response score, conc. 4: conc. 4: Cyclo 160 μg/ml, Vinc 80 ng/ml, Etop 100 μg/ml, Bini 800 ng/ml, Doxo 270 ng/ml; for effectiveness on Circulating Tumour Cells (CTCs) under laboratory conditions / Drug sensitivity as calculated by the assay (interpretation of Drug Response Scores): sex cord stromal / ovarian tumour CTCs; for Drug sensitivity as calculated by the assay (interpretation of Drug Response Scores): Table 14
# Description: (§1) CD45^+ cells and circulating tumour cells (CTCs) were isolated from a blood sample provided by each subject.
# (§2) CD45 separation was performed by adding human CD45 microbeads (50 μl/ml blood), incubating for 15 minutes at 4° C. and then processing using an AutoMACS machine. This separates the blood sample into CD45^+ and CD45^−cells in 2 separate falcons. The falcon tubes are then centrifuged at 1200 rpm for 5 minutes.
# (§3) The supernatant was removed from the CD45^−falcon tube, and the CD45^−cells contacted with 100 μl of FcR block and 100 μl of CD326 (EpCAM) MicroBeads, followed by incubation at […] 4° C. for 30 minutes. The CD45^−cells were then processed using an AutoMACS machine to separate the EpCAM positive and negative cells into 2 separate falcon tubes. The EpCAM-cells were discarded. The supernatant was removed from the EpCAM^+ cells, and the cells resuspended in DMEM with 2 μl Cell Tox, 2 μl MT and 2 μl MT. 20 μl of the resuspended pellet was then added to all sample wells excluding a blank. After all wells are added to, a cell count was conducted on the […] to determine the number of circulating tumour cells (CTCs).
# (§4) The different cell types were each divided equally into populations, depending on the number of drugs/concentrations to be tested and plated on a cell-culture plate pre-coated with a scaffold of polycaprolactone (PCL) electrospun fibres and incubated at 37° C., 5% CO2, for 5 to (typically 10) minutes to facilitate cell attachment. After attachment, an initial imaging step was carried out using the RealTime-Glo™ MT assay from Promega (Catalogue No. G9711)) and the CellTox™ Green Cytotoxicity Assay (Promega, Catalogue No. G8741), carried out according to manufacturer's instructions. Following this initial imagining, the immunotherapeutic and/or chemotherapeutic agents were added to the cell populations as indicated below. After 10 minutes, the imagining step was repeated. The cell populations were then incubated at 37° C., 5% CO2 for 48 hours. The imaging step was then repeated. The cell populations were then re-dosed with the same immunotherapeutic and/or chemotherapeutic agents as indicated below, and incubated at 37° C., 5% CO2 for a further 48 hours. After this second 48 hour incubation, the imagining step was repeated for a final time.
# (§5) At the end of this culture period, dose response scores were calculated using a normalized drug response metric as described in Gupta et al. (Communications Biology volume 3, Article number: 42 (2020), https://doi.org/10.1038/s42003-020-0765-z). The start readout for a given immunotherapeutic or chemotherapeutic agent at a given concentration was the to readout for said immunotherapeutic or chemotherapeutic agent at a specified concentration. The end readout for a given immunotherapeutic or chemotherapeutic agent at a given concentration was the final timepoint reading (t96h) for said immunotherapeutic or chemotherapeutic agent at a specified concentration.
# (§6) The positive control start readout for a given drug/concentration was the to readout for the corresponding drug at a specified concentration. The positive control end readout for the corresponding drug at a specified concentration was the final timepoint reading (t96h) for the corresponding blank well.
# (§7) The negative control start and end readouts for a given immunotherapeutic or chemotherapeutic agent at a given concentration were the to and final timepoint reading (t96h) respectively for blank cell or blank immuno cell well respectively.
# (§8) The sensitivity or resistance of a subject's cancer to a given immunotherapeutic or chemotherapeutic agent was determined based on the calculated drug response score as shown in Table 2.
# Blood samples from a patient with sex cord stromal tumour, ovarian tumour (epitheliod neoplasm, stage 3 recurrence after surgery (resection) and previous chemotherapy) were received on 19 Jul. 2021 and tested using a 5 drug panel. […]
# [2] = system: Circulating Tumour Cells (CTCs, EpCam+CD45−) from a patient with stage II synovial sarcoma; experiment: Drug response score assay (RealTime-Glo MT / CellTox Green, PCL scaffold) on CTCs from blood, Example 1; parameters: key to Drug response score, conc. 1 / Drug response score, conc. 2 / Drug response score, conc. 3 / Drug response score, conc. 4: normalized drug response metric per Gupta et al. 2020; conditions: for Drug response score, conc. 1: conc. 1: Doxo 10 ng/ml, Ifos 0.125 μg/ml, Gemcit 2 μg/ml, Doce 0.02 μg/ml, Carbo 2 μg/ml, Dacarb 1.5 μg/ml, re-dosed at 48 h; for Drug response score, conc. 1 / Drug response score, conc. 2 / Drug response score, conc. 3 / Drug response score, conc. 4: CTCs, t96h; for Drug response score, conc. 2: conc. 2: Doxo 30 ng/ml, Ifos 0.25 μg/ml, Gemcit 10 μg/ml, Doce 0.2 μg/ml, Carbo 5 μg/ml, Dacarb 3 μg/ml; for Drug response score, conc. 3: conc. 3: Doxo 90 ng/ml, Ifos 5 μg/ml, Gemcit 20 μg/ml, Doce 2 μg/ml, Carbo 10 μg/ml, Dacarb 6 μg/ml; for Drug response score, conc. 4: conc. 4: Doxo 270 ng/ml, Ifos 10 μg/ml, Gemcit 40 μg/ml, Doce 10 μg/ml, Carbo 20 μg/ml, Dacarb 12 μg/ml
# Description: as §1, §2, §3, §4, §5, §6, §7, §8
# Blood samples from a patient with stage II synovial sarcoma (suspected spindle cell tumour) were received and tested using a 6 drug panel.
# Chemotherapeutic agents were tested as in Table 3.
# [3] = system: Circulating Tumour Cells (CTCs) from a patient with colon cancer (sigmoid colon cancer); experiment: Drug response score assay on CTCs from blood, Example 8; parameters: key to Drug response score, conc. 1 / Drug response score, conc. 2 / Drug response score, conc. 3 / Drug response score, conc. 4: normalized drug response metric (Gupta et al. 2020); conditions: for Drug response score, conc. 1: conc. 1 of each drug as in Table 24; for Drug response score, conc. 1 / Drug response score, conc. 2 / Drug response score, conc. 3 / Drug response score, conc. 4: CTCs, t96h; for Drug response score, conc. 2: conc. 2 of each drug as in Table 24; for Drug response score, conc. 3: conc. 3 of each drug as in Table 24; for Drug response score, conc. 4: conc. 4 of each drug as in Table 24; for Drug sensitivity as calculated by the assay (interpretation of Drug Response Scores): Table 26
# Description: as §1, §2, §3
# as §4, with “After” for “The different cell types were each divided equally into populations, depending on the number of drugs/concentrations to be tested and plated on a cell-culture plate pre-coated with a scaffold of polycaprolactone (PCL) electrospun fibres and incubated at 37° C., 5% CO2, for 5 to (typically 10) minutes to facilitate cell attachment. After”
# as §5, §6, §7, §8
# Blood samples from a patient with colon cancer (sigmoid colon cancer) were received on 8 Mar. 2022 and tested using a 9 drug panel.
# Chemotherapeutic agents were tested as in Table 24.
# [4] = system: Circulating Tumour Cells (CTCs) from a patient with renal cancer; experiment: Drug response score assay on CTCs (with CD45+ cells for immunotherapy) from blood, Example 7; parameters: key to Drug response score, conc. 1 / Drug response score, conc. 2 / Drug response score, conc. 3 / Drug response score, conc. 4: normalized drug response metric per Gupta et al. 2020; conditions: for Drug response score, conc. 1: conc. 1: Pembr 20 μg/ml (CTCs + CD45+ cells), Docetax 0.02 μg/ml, Gemcit 2 μg/ml, Topo 5 μg/ml, Etop 1 μg/ml, Eribul 5 μg/ml (CTCs); for Drug response score, conc. 1 / Drug response score, conc. 2 / Drug response score, conc. 3 / Drug response score, conc. 4: t96h; for Drug response score, conc. 2: conc. 2: Pembr 40 μg/ml (CTCs + CD45+ cells), Docetax 0.2 μg/ml, Gemcit 10 μg/ml, Topo 10 μg/ml, Etop 4 μg/ml, Eribul 10 μg/ml (CTCs); for Drug response score, conc. 3: conc. 3: Pembr 100 μg/ml (CTCs + CD45+ cells), Docetax 2 μg/ml, Gemcit 20 μg/ml, Topo 50 μg/ml, Etop 20 μg/ml, Eribul 20 μg/ml (CTCs); for Drug response score, conc. 4: conc. 4: Pembr 160 μg/ml (CTCs + CD45+ cells), Docetax 10 μg/ml, Gemcit 40 μg/ml, Topo 100 μg/ml, Etop 100 μg/ml, Eribul 40 μg/ml (CTCs); for Drug sensitivity as calculated by the assay (interpretation of Drug Response Scores): Table 23
# Description: as §1, §2
# The supernatant was removed from the CD45^+falcon tube, and the cells resuspended in DMEM with 2 μl Cell Tox, 2 μl MT and 2 μl MT. 20 μl of the resuspended CD45^+ cells was then plated in each well which will contain an immunotherapy treatment.
# as §3, §4, §5, §6, §7
# The sensitivity or resistance of a subject's cancer to a given immunotherapeutic or chemotherapeutic agent was determined based on the calculated drug response score as shown in Table 2. […]
SMILES,"Drug response score, conc. 1 [1]","Drug response score, conc. 2 [1]","Drug response score, conc. 3 [1]","Drug response score, conc. 4 [1]",effectiveness on Circulating Tumour Cells (CTCs) under laboratory conditions [1],Drug sensitivity as calculated by the assay (interpretation of Drug Response Scores) [1],"Drug response score, conc. 1 [3]","Drug response score, conc. 2 [3]","Drug response score, conc. 3 [3]","Drug response score, conc. 4 [3]",Drug sensitivity as calculated by the assay (interpretation of Drug Response Scores) ([3]; sigmoid colon cancer CTCs),also measured
Cn1cnc2c(F)c(Nc3ccc(Br)cc3F)c(C(=O)NOCCO)cc21 [Binimetinib],0.93,1.18,1.19,1.06,not effective,Resistant,,,,,,
N.N.O=C([O-])C1(C(=O)[O-])CCC1.[Pt+2] [Carboplatin],,,,,,,6.6672,−0.0506,−0.8131,−0.1322,Sensitive (S++),"Drug response score, conc. 1 [2]: 1.4015; Drug response score, conc. 2 [2]: 0.6497; Drug response score, conc. 3 [2]: 0.4151; Drug response score, conc. 4 [2]: 0.4317; Drug sensitivity as calculated by the assay (interpretation of Drug Response Scores) ([2]; synovial sarcoma CTCs, Table 5): Sensitive (S+)"
O=P1(N(CCCl)CCCl)NCCCO1 (stereo not drawn) [Cyclophosphamide],0.97,0.58,0.41,0.94,show effectiveness,Sensitive (S++),−0.3176,0.9581,0.6810,2.5058,Sensitive (S+),effectiveness on Circulating Tumour Cells under laboratory conditions ([3]; sigmoid colon cancer CTCs): S+
CN(C)/N=N/c1[nH]cnc1C(N)=O [Dacarbazine],,,,,,,,,,,,"Drug response score, conc. 1 [2]: 2.1563; Drug response score, conc. 2 [2]: 0.0887; Drug response score, conc. 3 [2]: 0.1691; Drug response score, conc. 4 [2]: 0.5700"
C=C1C[C@@H]2CC[C@@]34C[C@H]5O[C@H]6[C@@H](O3)[C@H]3O[C@H](CC[C@@H]3O[C@H]6[C@H]5O4)CC(=O)C[C@@H]3[C@@H](OC)[C@@H](C[C@H](O)CN)O[C@H]3C[C@H]3O[C@@H](CC[C@@H]1O2)C[C@@H](C)C3=C [Eribuline],,,,,,,4.4627,−0.1620,−0.0329,−0.4785,Sensitive (S++),"Drug response score, conc. 1 [4]: 0.4482; Drug response score, conc. 2 [4]: 0.0692; Drug response score, conc. 3 [4]: −0.1453; Drug response score, conc. 4 [4]: −0.0193; Drug sensitivity as calculated by the assay (interpretation of Drug Response Scores) ([4]; renal cancer CTCs): Sensitive (S+)"
CC[C@@]1(O)C(=O)OCc2c1cc1n(c2=O)Cc2cc3c(CN(C)C)c(O)ccc3nc2-1 [Topotecan],,,,,,,,,,,,"Drug response score, conc. 1 [4]: 0.1847; Drug response score, conc. 2 [4]: −0.0648; Drug response score, conc. 3 [4]: −0.0964; Drug response score, conc. 4 [4]: −0.1707; effectiveness on Circulating Tumour Cells under laboratory conditions ([4]; renal cancer CTCs): Sensitive S++; Drug sensitivity as calculated by the assay (interpretation of Drug Response Scores) ([4]; renal cancer CTCs): Sensitive (S++)"
CC[C@]1(O)C[C@H]2CN(CCc3c([nH]c4ccccc34)[C@@](C(=O)OC)(c3cc4c(cc3OC)N(C=O)[C@H]3[C@@](O)(C(=O)OC)[C@H](OC(C)=O)[C@]5(CC)C=CCN6CC[C@]43[C@@H]65)C2)C1 [Vincristine],3.35,1.24,1.83,1.29,not effective,Resistant,,,,,,
